Assay results from patent US20250099517A1, “Use of Lactobacillus reuteri Y7 strain for prevention or treatment of ocular diseases” (Taipei Medical University, priority 2023, published 2025).

Experiments:
[1] = system: Bax, Bcl-2, Caspase3 gene expression; assay: q-PCR of apoptosis-related gene expression in eyes; type: in vivo, C57BL/6 mice
Protocol: The C57BL/6 mice, which weighed between 23 and 25 g, were divided into seven groups randomly. In each group, the six mice induced by blue light successfully were incorporated in experiments. The samples dissolved in deuterium-depleted water (DDW) were fed to mice through oral tubes once a day. The groups were named and introduced as follows: • (1) Solvent not classified group (NC): The mice were fed with 0.2 ml deuterium-depleted water (DDW) through tubes; • (2) Negative control group (Blue light (BL)): The mice were fed with 0.2 ml deuterium-depleted water (DDW) through tubes and exposed to blue light; • (3) Low-dosage Y7 probiotics group […]): The mice were fed with low-dosage Y7 probiotics (probiotic counts of 1.0×10^8 CFU/ml dissolved in 0.2 ml DDW per day) and exposed to blue light; • (4) High-dosage Y7 probiotics group […]): The mice were fed with high-dosage Y7 probiotics (probiotic counts of 1.0×10^9 CFU/ml dissolved in 0.2 ml DDW per day) and exposed to blue light; • (5) Positive control group (lutein (LU)): The mice were fed with lutein and exposed to blue light. The recommended human dosage of lutein is 30 mg. The mouse cage (48×25×20 cm) placed inside a stainless ventilated box was equipped with blue light boards as blue light sources around and above. In the experiment of animals exposed to blue light, six-week-old mice staying in the mouse cage were fed with drinking water as well as fodders and exposed to 400 Lux blue light illumination under the light-dark cycle of 12-hour light and 12-hour dark. The experiment was aimed at causing mice' late dry macular disease induced by chronic light injuries for simulating a human being's macular disease after long-term exposure to short-wavelength blue light from 3C products in daily life. The eyes of a mouse sacrificed were collected for the following purposes. RNAs extracted with Trizol were reverse-transcribed to cDNAs. Then, the real-time quantitative polymerase chain reaction was enabled to detect gene expressions related to inflammatory hormones and apoptosis such as TNF-α, IL-1B, IL-6, Bax, Bcl-2, Caspase1, Caspase3 and NLRP3 for comparisons with the endogenous level of β-actin, GAPDH or 18S rRNA. [table] The gene expressions related to apoptosis in test mice' eyes, for example, Bax (FIG. 9a), Bcl-2 (FIG. 9b) and Caspase3 (FIG. 9c), were analyzed in the experiment.

[2] = system: Occludin, Claudin-1, ZO-1 gene expression; assay: q-PCR of tight junction gene expression in buccal mucosas; type: in vivo, C57BL/6 mice; conditions: Y7H high-dosage group, p<0.05
Description: The C57BL/6 mice, which weighed between 23 and 25 g, were divided into seven groups randomly. In each group, the six mice induced by blue light successfully were incorporated in experiments. The samples dissolved in deuterium-depleted water (DDW) were fed to mice through oral tubes once a day. […] Then, the real-time quantitative polymerase chain reaction was enabled to detect gene expressions related to inflammatory hormones and apoptosis such as TNF-α, IL-1B, IL-6, Bax, Bcl-2, Caspase1, Caspase3 and NLRP3 for comparisons with the endogenous level of β-actin, GAPDH or 18S rRNA. […] The gene expressions related to tight junctions of mice' eyes, buccal mucosas and colons after induction of blue light were analyzed through q-PCR and shown in FIG. 10a, FIG. 10d and FIG. 10g for Occludin, FIG. 10b, FIG. 10e and FIG. 10h for Claudin-1 and FIG. 10c, FIG. 10f and FIG. 10i for ZO-1, respectively.

[3] = after intervention of Y7 probiotics (dosage groups not distinguished)

Substance: Lactobacillus reuteri Y7 [Y7 probiotics]
- gene expression of Bcl-2 compared with the BL group ([1]; Y7H high-dosage group): increased significantly
- gene expression of Bax, closeness to the NC group ([1]; Y7L low-dosage group versus LU group): closer to the NC group than the LU group
- gene expression of Bax [1, 3]: significantly inhibited
- gene expression of Caspase3 [1, 3]: closer to the NC group
- gene expressions of ZO-1 compared with NC, BL or LU groups [2]: increased significantly
